{"source": "paper PMC11921695", "about": "(BMC Cancer, 2025)", "test_system": "patients with HIV-associated KS", "data": [{"compound": "Cn1cnc2c(F)c(Nc3ccc(Br)cc3Cl)c(C(=O)NOCCO)cc21", "note": "[selumetinib, 6-(4-Bromo-2-chloro-phenylamino)-7-fluro-3-methyl-3 H-benzoimidazole-5-carboxylic acid (2-hydroxy-ethoxy)-amide hydrogen sulphate]", "values": [{"measurement": "Blood and lymphatic system disorders: Adverse Events Grade3 N", "setting": "N = patients, any dose", "result": 0}, {"measurement": "Blood and lymphatic system disorders: Adverse Reactions Grade 1 N", "setting": "N = patients, any dose", "result": 3}, {"measurement": "Blood and lymphatic system disorders: Adverse Reactions Grade 2 N", "setting": "N = patients, any dose", "result": 1}, {"measurement": "Blood and lymphatic system disorders: Adverse Reactions Grade 3 N", "setting": "N = patients, any dose", "result": 0}, {"measurement": "Cardiac disorders: Adverse Events Grade 1 N", "setting": "N = patients, any dose", "result": 1}, {"measurement": "Cardiac disorders: Adverse Events Grade 2 N", "setting": "N = patients, any dose", "result": 0}, {"measurement": "Cardiac disorders: Adverse Events Grade3 N", "setting": "N = patients, any dose", "result": 0}, {"measurement": "Cardiac disorders: Adverse Reactions Grade 1 N", "setting": "N = patients, any dose", "result": 0}, {"measurement": "Cardiac disorders: Adverse Reactions Grade 2 N", "setting": "N = patients, any dose", "result": 0}, {"measurement": "Cardiac disorders: Adverse Reactions Grade 3 N", "setting": "N = patients, any dose", "result": 0}, {"measurement": "Eye disorders: Adverse Events Grade 1 N", "setting": "N = patients, any dose", "result": 6}, {"measurement": "Eye disorders: Adverse Events Grade 2 N", "setting": "N = patients, any dose", "result": 3}, {"measurement": "Eye disorders: Adverse Events Grade3 N", "setting": "N = patients, any dose", "result": 0}, {"measurement": "Eye disorders: Adverse Reactions Grade 1 N", "setting": "N = patients, any dose", "result": 5}, {"measurement": "Eye disorders: Adverse Reactions Grade 2 N", "setting": "N = patients, any dose", "result": 3}, {"measurement": "Eye disorders: Adverse Reactions Grade 3 N", "setting": "N = patients, any dose", "result": 0}, {"measurement": "Gastrointestinal disorders: Adverse Events Grade 1 N", "setting": "N = patients, any dose", "result": 12}, {"measurement": "Gastrointestinal disorders: Adverse Events Grade 2 N", "setting": "N = patients, any dose", "result": 7}, {"measurement": "Gastrointestinal disorders: Adverse Events Grade3 N", "setting": "N = patients, any dose", "result": 0}, {"measurement": "Gastrointestinal disorders: Adverse Reactions Grade 1 N", "setting": "N = patients, any dose", "result": 12}, {"measurement": "Gastrointestinal disorders: Adverse Reactions Grade 2 N", "setting": "N = patients, any dose", "result": 6}, {"measurement": "Gastrointestinal disorders: Adverse Reactions Grade 3 N", "setting": "N = patients, any dose", "result": 0}, {"measurement": "General disorders and administration site conditions: Adverse Events Grade 1 N", "setting": "N = patients, any dose", "result": 11}, {"measurement": "General disorders and administration site conditions: Adverse Events Grade 2 N", "setting": "N = patients, any dose", "result": 5}, {"measurement": "General disorders and administration site conditions: Adverse Events Grade3 N", "setting": "N = patients, any dose", "result": 1}, {"measurement": "General disorders and administration site conditions: Adverse Reactions Grade 1 N", "setting": "N = patients, any dose", "result": 10}, {"measurement": "General disorders and administration site conditions: Adverse Reactions Grade 2 N", "setting": "N = patients, any dose", "result": 2}, {"measurement": "General disorders and administration site conditions: Adverse Reactions Grade 3 N", "setting": "N = patients, any dose", "result": 0}, {"measurement": "Infections and infestations: Adverse Events Grade 1 N", "setting": "N = patients, any dose", "result": 2}, {"measurement": "Infections and infestations: Adverse Events Grade 2 N", "setting": "N = patients, any dose", "result": 4}, {"measurement": "Infections and infestations: Adverse Events Grade3 N", "setting": "N = patients, any dose", "result": 0}, {"measurement": "Infections and infestations: Adverse Reactions Grade 1 N", "setting": "N = patients, any dose", "result": 1}, {"measurement": "Infections and infestations: Adverse Reactions Grade 2 N", "setting": "N = patients, any dose", "result": 3}, {"measurement": "Infections and infestations: Adverse Reactions Grade 3 N", "setting": "N = patients, any dose", "result": 0}, {"measurement": "Injury, poisoning and procedural complications: Adverse Events Grade 1 N", "setting": "N = patients, any dose", "result": 2}, {"measurement": "Injury, poisoning and procedural complications: Adverse Events Grade 2 N", "setting": "N = patients, any dose", "result": 1}, {"measurement": "Injury, poisoning and procedural complications: Adverse Events Grade3 N", "setting": "N = patients, any dose", "result": 0}, {"measurement": "Injury, poisoning and procedural complications: Adverse Reactions Grade 1 N", "setting": "N = patients, any dose", "result": 0}, {"measurement": "Injury, poisoning and procedural complications: Adverse Reactions Grade 2 N", "setting": "N = patients, any dose", "result": 0}, {"measurement": "Injury, poisoning and procedural complications: Adverse Reactions Grade 3 N", "setting": "N = patients, any dose", "result": 0}, {"measurement": "Investigations: Adverse Events Grade 1 N", "setting": "N = patients, any dose", "result": 15}, {"measurement": "Investigations: Adverse Events Grade 2 N", "setting": "N = patients, any dose", "result": 4}, {"measurement": "Investigations: Adverse Events Grade3 N", "setting": "N = patients, any dose", "result": 2}, {"measurement": "Investigations: Adverse Reactions Grade 1 N", "setting": "N = patients, any dose", "result": 14}, {"measurement": "Investigations: Adverse Reactions Grade 2 N", "setting": "N = patients, any dose", "result": 3}, {"measurement": "Investigations: Adverse Reactions Grade 3 N", "setting": "N = patients, any dose", "result": 0}, {"measurement": "Metabolism and nutrition disorders: Adverse Events Grade 1 N", "setting": "N = patients, any dose", "result": 5}, {"measurement": "Metabolism and nutrition disorders: Adverse Events Grade 2 N", "setting": "N = patients, any dose", "result": 0}, {"measurement": "Metabolism and nutrition disorders: Adverse Events Grade3 N", "setting": "N = patients, any dose", "result": 0}, {"measurement": "Metabolism and nutrition disorders: Adverse Reactions Grade 1 N", "setting": "N = patients, any dose", "result": 5}, {"measurement": "Metabolism and nutrition disorders: Adverse Reactions Grade 2 N", "setting": "N = patients, any dose", "result": 0}, {"measurement": "Metabolism and nutrition disorders: Adverse Reactions Grade 3 N", "setting": "N = patients, any dose", "result": 0}, {"measurement": "Musculoskeletal and connective tissue disorders: Adverse Events Grade 1 N", "setting": "N = patients, any dose", "result": 4}, {"measurement": "Musculoskeletal and connective tissue disorders: Adverse Events Grade 2 N", "setting": "N = patients, any dose", "result": 0}, {"measurement": "Musculoskeletal and connective tissue disorders: Adverse Events Grade3 N", "setting": "N = patients, any dose", "result": 0}, {"measurement": "Musculoskeletal and connective tissue disorders: Adverse Reactions Grade 1 N", "setting": "N = patients, any dose", "result": 2}, {"measurement": "Musculoskeletal and connective tissue disorders: Adverse Reactions Grade 2 N", "setting": "N = patients, any dose", "result": 0}, {"measurement": "Musculoskeletal and connective tissue disorders: Adverse Reactions Grade 3 N", "setting": "N = patients, any dose", "result": 0}, {"measurement": "Nervous system disorders: Adverse Events Grade 1 N", "setting": "N = patients, any dose", "result": 4}, {"measurement": "Nervous system disorders: Adverse Events Grade 2 N", "setting": "N = patients, any dose", "result": 0}, {"measurement": "Nervous system disorders: Adverse Events Grade3 N", "setting": "N = patients, any dose", "result": 0}, {"measurement": "Nervous system disorders: Adverse Reactions Grade 1 N", "setting": "N = patients, any dose", "result": 4}, {"measurement": "Nervous system disorders: Adverse Reactions Grade 2 N", "setting": "N = patients, any dose", "result": 0}, {"measurement": "Nervous system disorders: Adverse Reactions Grade 3 N", "setting": "N = patients, any dose", "result": 0}, {"measurement": "Psychiatric disorders: Adverse Events Grade 1 N", "setting": "N = patients, any dose", "result": 3}, {"measurement": "Psychiatric disorders: Adverse Events Grade 2 N", "setting": "N = patients, any dose", "result": 0}, {"measurement": "Psychiatric disorders: Adverse Events Grade3 N", "setting": "N = patients, any dose", "result": 0}, {"measurement": "Psychiatric disorders: Adverse Reactions Grade 1 N", "setting": "N = patients, any dose", "result": 3}, {"measurement": "Psychiatric disorders: Adverse Reactions Grade 2 N", "setting": "N = patients, any dose", "result": 0}, {"measurement": "Psychiatric disorders: Adverse Reactions Grade 3 N", "setting": "N = patients, any dose", "result": 0}, {"measurement": "Renal and urinary disorders: Adverse Events Grade 1 N", "setting": "N = patients, any dose", "result": 2}, {"measurement": "Renal and urinary disorders: Adverse Events Grade 2 N", "setting": "N = patients, any dose", "result": 0}, {"measurement": "Renal and urinary disorders: Adverse Events Grade3 N", "setting": "N = patients, any dose", "result": 0}, {"measurement": "Renal and urinary disorders: Adverse Reactions Grade 1 N", "setting": "N = patients, any dose", "result": 1}, {"measurement": "Renal and urinary disorders: Adverse Reactions Grade 2 N", "setting": "N = patients, any dose", "result": 0}, {"measurement": "Renal and urinary disorders: Adverse Reactions Grade 3 N", "setting": "N = patients, any dose", "result": 0}, {"measurement": "Respiratory, thoracic and mediastinal disorders: Adverse Events Grade 1 N", "setting": "N = patients, any dose", "result": 4}, {"measurement": "Respiratory, thoracic and mediastinal disorders: Adverse Events Grade 2 N", "setting": "N = patients, any dose", "result": 1}, {"measurement": "Respiratory, thoracic and mediastinal disorders: Adverse Events Grade3 N", "setting": "N = patients, any dose", "result": 0}, {"measurement": "Respiratory, thoracic and mediastinal disorders: Adverse Reactions Grade 1 N", "setting": "N = patients, any dose", "result": 4}, {"measurement": "Respiratory, thoracic and mediastinal disorders: Adverse Reactions Grade 2 N", "setting": "N = patients, any dose", "result": 1}, {"measurement": "Respiratory, thoracic and mediastinal disorders: Adverse Reactions Grade 3 N", "setting": "N = patients, any dose", "result": 0}, {"measurement": "Skin and subcutaneous tissue disorders: Adverse Events Grade 1 N", "setting": "N = patients, any dose", "result": 10}, {"measurement": "Skin and subcutaneous tissue disorders: Adverse Events Grade 2 N", "setting": "N = patients, any dose", "result": 9}, {"measurement": "Skin and subcutaneous tissue disorders: Adverse Events Grade3 N", "setting": "N = patients, any dose", "result": 3}, {"measurement": "Skin and subcutaneous tissue disorders: Adverse Reactions Grade 1 N", "setting": "N = patients, any dose", "result": 10}, {"measurement": "Skin and subcutaneous tissue disorders: Adverse Reactions Grade 2 N", "setting": "N = patients, any dose", "result": 9}, {"measurement": "Skin and subcutaneous tissue disorders: Adverse Reactions Grade 3 N", "setting": "N = patients, any dose", "result": 3}, {"measurement": "Vascular disorders: Adverse Events Grade 1 N", "setting": "N = patients, any dose", "result": 2}, {"measurement": "Vascular disorders: Adverse Events Grade 2 N", "setting": "N = patients, any dose", "result": 0}, {"measurement": "Vascular disorders: Adverse Events Grade3 N", "setting": "N = patients, any dose", "result": 0}, {"measurement": "Vascular disorders: Adverse Reactions Grade 1 N", "setting": "N = patients, any dose", "result": 0}, {"measurement": "Vascular disorders: Adverse Reactions Grade 2 N", "setting": "N = patients, any dose", "result": 0}, {"measurement": "Vascular disorders: Adverse Reactions Grade 3 N", "setting": "N = patients, any dose", "result": 0}, {"measurement": "further AEs reported", "setting": "human, in vivo", "result": 366}, {"measurement": "ALT Increased: Number of patients experiencing at least one grade <2AE", "setting": "n (%) of 16 patients", "result": "5 (31%)"}, {"measurement": "AST Increased: Number of patients experiencing at least one grade <2AE", "setting": "n (%) of 16 patients", "result": "7 (44%)"}, {"measurement": "Albumin Decreased: Number of patients experiencing at least one grade <2AE", "setting": "n (%) of 16 patients", "result": "3 (19%)"}, {"measurement": "CPK Increased: Number of patients experiencing at least one grade <2AE", "setting": "n (%) of 16 patients", "result": "9 (56%)"}, {"measurement": "Fatigue: Number of patients experiencing at least one grade <2AE", "setting": "n (%) of 16 patients", "result": "9 (56%)"}, {"measurement": "Nausea: Number of patients experiencing at least one grade <2AE", "setting": "n (%) of 16 patients", "result": "7 (44%)"}, {"measurement": "Red Blood Cell Count Decreased: Number of patients experiencing at least one grade <2AE", "setting": "n (%) of 16 patients", "result": "7 (44%)"}, {"measurement": "Vomiting: Number of patients experiencing at least one grade <2AE", "setting": "n (%) of 16 patients", "result": "3 (19%)"}, {"measurement": "serious adverse event (SAE), unrelated to study treatment", "setting": "number", "result": "one"}, {"measurement": "serious adverse reactions (SARs)", "setting": "number", "result": "two"}, {"measurement": "AEs graded 1 or 2", "setting": "number of events", "result": 360}, {"measurement": "grade 3 AEs (non-serious)", "setting": "number of events, in five separate patients", "result": "six"}, {"measurement": "AEs categorised as grade 1 or 2", "setting": "of the further 366 AEs", "result": 98, "unit": "%"}, {"measurement": "AEs deemed as ARs", "setting": "of the further 366 AEs", "result": 69, "unit": "%"}]}]}
